# Measurements reported in patent publication US20070154449A1, “TIGHT JUNCTION MODULATING PEPTIDES FOR ENHANCED MUCOSAL DELIVERY OF THERAPEUTIC COMPOUNDS” (Nastech Pharmaceutical Company Inc., priority 2005, published 2007).
# How the values were obtained:
# [1] = Intranasal PYY(3-36) pharmacokinetics in rabbits with various TJMPs (Example 10); type: in vivo, New Zealand White rabbits; conditions: rabbit
# Excerpt: The tubes were chilled until […].
# [2] = test system: human-derived tracheal/bronchial epithelial cells (EpiAirway™ Tissue model system); assay: Cytotoxicity (LDH assay), EpiAirway tissue model; type: cell-based
# Protocol: The amount of cell death was assayed by measuring the release of lactate dehydrogenase (LDH) from the cells into the apical medium using a CytoTox 96 Cytotoxicity Assay Kit (Promega Corp., Madison, Wis.). One percent Octylphenolpoly (ethyleneglycolether)×(Triton X-100™) diluted in phosphate buffered saline (PBS) causes 100% lysis in cultured cells and served herein as a positive control for the LDH assay. Following the one hour incubation period with a test formulation (refer to Table 4 in Example 2 for details of test formulations), the total liquid volume of each insert was brought to a final volume of 200 μl with culture medium. The apical medium was then mixed by pipetting four times with a multichannel pipette set to a 100 μl volume. After mixing, a 100 μl sample from the apical side of each insert was transferred to a new 96-well plate. The apical media samples were sealed with a plate sealer and stored at room temperature for same day analysis or stored overnight at 4° C. for analysis the next day. To measure LDH levels, 5 μl of the 100 μl apical media sample was diluted in 45 μl DPBS in a new 96-well plate. Fresh, cell-free culture medium will be used as a blank. Fifty microliters of substrate solution was added to each well and incubated for 30 minutes at room temperature away from direct light. Following the 30 minute incubation, 50 μl of stop solution was added to each well. Optical density (OD) was measured at 490 nm with a uQuant absorbance plate reader from Biotek Instruments. The measurement of LDH release into the apical media indicates relative cytotoxicity of the samples. Percent cytotoxicity for each test formulation was calculated by subtracting the measured absorbance of the PBS control (basal level of LDH release) from the measured absorbance of the individual test formulation and then dividing that value by the measured absorbance for the 1% Triton X-100™ positive control, multiplied by 100.
# The formula used to calculate percent cytotoxicity is as follows: [formula] Osmolality
# Of the total 300 μl volume for each test formulation, only a 20 μl sample was applied to the human-derived tracheal/bronchial epithelial cells (EpiAirway™ Tissue model system) in order to assess the effect each test formulation had on TER, LDH and sample permeation.
# [3] = Intranasal PYY pharmacokinetics in rabbits with PN159 or small molecule enhancers (Example 5); type: in vivo, New Zealand White rabbits; conditions: for PYY plasma concentration: mean of 4 rabbits; for AUCINF (Mean) / AUClast (Mean) / Cmax (Mean) / Tmax (Mean) / t½ (Mean): PYY in plasma, rabbit; for Relative AUC last / Relative Cmax: PYY, rabbit intranasal
# Protocol: Twenty male New Zealand White rabbits age 3-6 months and weighing 2.1-3.0 kg were randomly assigned into one of 5 treatment groups with four animals per group. Test animals were dosed at 15 μl/kg and intranasally via pipette. Table 6 below indicates the composition of five different dose groups.
# For dosing group 1 (see Table 6) a clinical formulation of PYY including small molecule permeation enhancers was used. The small molecule enhancers in these studies included methyl-β-cyclodextrin, phosphatidylcholine didecanoyl (DDPC), and/or EDTA. Dosing group 2 received PYY dissolved in phosphate buffered saline (PBS). For dosing groups 3-5, various concentrations of PN159 were added to dosing group 2, so that each of dosing groups 3 to 5 consisted of PYY, PN159, and PBS.
# Serial blood samples (about 2 ml each) were collected by direct venipuncture from a marginal ear vein into blood collection tubes containing EDTA as an anticoagulant. Blood samples were collected at 0, 2.5, 5, 10, 15, 30, 45, 60, and 120 minutes post-dosing. After collection of the blood, the tubes were gently rocked several times for anti-coagulation, and then 50 μl aprotinin solution was added. The blood was centrifuged at approximately 1,600×g for 15 minutes at approximately 4° C., and plasma samples were dispensed into duplicate aliquots and stored frozen at approximately −70° C.
# [4] = test system: in vitro epithelial tissue model; assay: Cell viability (MTT assay), in vitro epithelial tissue model; conditions: galantamine lactate 40 mg/ml and PN159 at all concentrations tested (25, 50, 100 μM)
# [5] = PYY(3-36) in plasma, 205 μg/kg intranasal with the named TJMP (concentration per Table 11, 50-1000 μM) or PBS, mean
# [6] = Group 3: PYY 205 μg/kg intranasal with 25 μM PN159
# [7] = Group 4: PYY 205 μg/kg intranasal with 50 μM PN159
# [8] = Group 5: PYY 205 μg/kg intranasal with 100 μM PN159
# [9] = Group 3 (PN159, 25 μm) compared with Group 2 (no enhancer)
# [10] = Group 4 (PN159, 50 μm) compared with Group 2 (no enhancer)
# [11] = Group 5 (PN159, 100 μm) compared with Group 2 (no enhancer)
smiles,measurement,setting,value
CC(C)C[C@H](NC(=O)[C@H](C)NC(=O)[C@H](CCCCN)NC(=O)[C@H](CC(C)C)NC(=O)[C@H](C)NC(=O)[C@H](CC(C)C)NC(=O)[C@H](CCCCN)NC(=O)[C@H](CC(C)C)NC(=O)[C@H](C)NC(=O)[C@H](CC(C)C)NC(=O)[C@@H](N)CCCCN)C(=O)N[C@@H](CCCCN)C(=O)N[C@@H](C)C(=O)N[C@@H](C)C(=O)N[C@@H](CC(C)C)C(=O)N[C@@H](CCCCN)C(=O)N[C@@H](CC(C)C)C(=O)N[C@@H](C)C(N)=O [PN159],In Vivo Tier Ranking,"[1]; PYY(3-36) 205 μg/kg intranasal, TJMP concentration per Table 11: PN159 50 μM, PN161, PN202 100 μM, PN27 250 μM, PN58, PN73, PN228 500 μM, PN183, PN556 1000 μM",I
same,AUCinf,[1]; [5],1.55e+06 pg·min/mL
same,AUClast,[1]; [5],1.52e+06 pg·min/mL
same,Cmax,[1]; [5],30.2 ng/mL
same,T1/2,[1]; [5],30.2 min
same,Tmax,[1]; [5],17.0a min
same,LDH,"[2]; 25 μM peptide, 1 h incubation, % of 1% Triton X-100 control",31%
same,cytotoxicity as measured by LDH,"[2]; PN159 (25, 50, 100 μM) with galantamine lactate 40 mg/ml",low
same,PYY plasma concentration,"[3]; Group 3: PYY 205 μg/kg intranasal with 25 μM PN159, 0 min",228.675
same,PYY plasma concentration,"[3]; Group 3: PYY 205 μg/kg intranasal with 25 μM PN159, 2.5 min",526.375
same,PYY plasma concentration,"[3]; Group 3: PYY 205 μg/kg intranasal with 25 μM PN159, 5 min",1430.15
same,PYY plasma concentration,"[3]; Group 3: PYY 205 μg/kg intranasal with 25 μM PN159, 10 min",6521.7
same,PYY plasma concentration,"[3]; Group 3: PYY 205 μg/kg intranasal with 25 μM PN159, 15 min",12563.075
same,PYY plasma concentration,"[3]; Group 3: PYY 205 μg/kg intranasal with 25 μM PN159, 30 min",15222.6
same,PYY plasma concentration,"[3]; Group 3: PYY 205 μg/kg intranasal with 25 μM PN159, 45 min",9081.125
same,PYY plasma concentration,"[3]; Group 3: PYY 205 μg/kg intranasal with 25 μM PN159, 60 min",4843.15
same,PYY plasma concentration,"[3]; Group 3: PYY 205 μg/kg intranasal with 25 μM PN159, 120 min",1224.2
same,PYY plasma concentration,"[3]; Group 4: PYY 205 μg/kg intranasal with 50 μM PN159, 0 min",424.4
same,PYY plasma concentration,"[3]; Group 4: PYY 205 μg/kg intranasal with 50 μM PN159, 2.5 min",749.975
same,PYY plasma concentration,"[3]; Group 4: PYY 205 μg/kg intranasal with 50 μM PN159, 5 min",1293.4
same,PYY plasma concentration,"[3]; Group 4: PYY 205 μg/kg intranasal with 50 μM PN159, 10 min",12517.2
same,PYY plasma concentration,"[3]; Group 4: PYY 205 μg/kg intranasal with 50 μM PN159, 15 min",34455.3
same,PYY plasma concentration,"[3]; Group 4: PYY 205 μg/kg intranasal with 50 μM PN159, 30 min",35294.375
same,PYY plasma concentration,"[3]; Group 4: PYY 205 μg/kg intranasal with 50 μM PN159, 45 min",21582.225
same,PYY plasma concentration,"[3]; Group 4: PYY 205 μg/kg intranasal with 50 μM PN159, 60 min",9461.925
same,PYY plasma concentration,"[3]; Group 4: PYY 205 μg/kg intranasal with 50 μM PN159, 120 min",2337.775
same,PYY plasma concentration,"[3]; Group 5: PYY 205 μg/kg intranasal with 100 μM PN159, 0 min",294.225
same,PYY plasma concentration,"[3]; Group 5: PYY 205 μg/kg intranasal with 100 μM PN159, 2.5 min",1748.225
same,PYY plasma concentration,"[3]; Group 5: PYY 205 μg/kg intranasal with 100 μM PN159, 5 min",3088.2
same,PYY plasma concentration,"[3]; Group 5: PYY 205 μg/kg intranasal with 100 μM PN159, 10 min",14486.6
same,PYY plasma concentration,"[3]; Group 5: PYY 205 μg/kg intranasal with 100 μM PN159, 15 min",20882.725
same,PYY plasma concentration,"[3]; Group 5: PYY 205 μg/kg intranasal with 100 μM PN159, 30 min",25470.475
same,PYY plasma concentration,"[3]; Group 5: PYY 205 μg/kg intranasal with 100 μM PN159, 45 min",16499.55
same,PYY plasma concentration,"[3]; Group 5: PYY 205 μg/kg intranasal with 100 μM PN159, 60 min",10676.625
same,PYY plasma concentration,"[3]; Group 5: PYY 205 μg/kg intranasal with 100 μM PN159, 120 min",1891.275
same,AUCINF (Mean),[3]; [6],796354.7 pg·min/mL
same,AUClast (Mean),[3]; [6],748104.1 pg·min/mL
same,Cmax (Mean),[3]; [6],15.53395 ng/mL
same,Tmax (Mean),[3]; [6],22.5 min
same,t½ (Mean),[3]; [6],24.8467 min
same,AUCINF (Mean),[3]; [7],1787348 pg·min/mL
same,AUClast (Mean),[3]; [7],1692499 pg·min/mL
same,Cmax (Mean),[3]; [7],40.99553 ng/mL
same,Tmax (Mean),[3]; [7],26.25 min
same,t½ (Mean),[3]; [7],25.5355 min
same,AUCINF (Mean),[3]; [8],1518949 pg·min/mL
same,AUClast (Mean),[3]; [8],1384241 pg·min/mL
same,Cmax (Mean),[3]; [8],27.9744 ng/mL
same,Tmax (Mean),[3]; [8],33.75 min
same,t½ (Mean),[3]; [8],20.4628 min
same,Relative AUC last,[3]; [9],21×
same,Relative Cmax,[3]; [9],30×
same,Relative AUC last,[3]; [10],46×
same,Relative Cmax,[3]; [10],79×
same,Relative AUC last,[3]; [11],38×
same,Relative Cmax,[3]; [11],54×
same,Cell viability (MTT),[4],> 80%
